Reference: patent publication US20230085307A1, “PYRIDAZINONE COMPOUND AND HERBICIDE” (NISSAN CHEMICAL CORPORATION, priority 2019, published 2023)

How the values were obtained:
barnyard grass [1] = test: Test Example 3: herbicidal effect by foliage application, Wagner pot (Table 18, symbol H); type: in vivo, barnyard grass (Echinochloa crus-galli); settings: amount of applied herbicide 320 g/ha
In short: (§1)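 Plants were sown in alluvial soil held under 0.1–0.5 cm standing water and grown 14 days in a greenhouse at 25–30 °C. An emulsifiable formulation, water-diluted to the set dose, was then sprayed onto the foliage, and effects were scored three weeks later using previously defined criteria.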

Chinese sprangletop = test: Test Example 3: herbicidal effect by foliage application, Wagner pot (Table 18, symbol D); type: in vivo, chinese sprangletop (Leptochloa chinensis); settings: amount of applied herbicide 320 g/ha
In short: as §1

rice flat sedge = test: Test Example 3: herbicidal effect by foliage application, Wagner pot (Table 18, symbol E); type: in vivo, rice flat sedge (Cyperus iria); settings: amount of applied herbicide 320 g/ha
In short: as §1

southern crabgrass [2] = test: Test Example 4: herbicidal effect by soil treatment (Table 19, symbol F); type: in vivo, southern crabgrass (Digitaria ciliaris); settings: amount of applied herbicide 320 g/ha
In short: (§2)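 Three weeks of greenhouse growth at 25° C. to 30° C. followed a uniform surface spray of water-diluted emulsion at a predetermined herbicide amount. Seeds had been sown beforehand under about 1.5 cm of sterilized diluvial soil. Grading followed criteria set out in an earlier test.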

green foxtail [3] = test: Test Example 4: herbicidal effect by soil treatment (Table 19, symbol G); type: in vivo, green foxtail (Setaria viridis); settings: amount of applied herbicide 320 g/ha
In short: as §2

barnyard grass [4] = test: Test Example 4: herbicidal effect by soil treatment (Table 19, symbol H); type: in vivo, barnyard grass (Echinochloa crus-galli); settings: amount of applied herbicide 320 g/ha
In short: as §2

wild oat [5] = test: Test Example 4: herbicidal effect by soil treatment (Table 19, symbol I); type: in vivo, wild oat (Avena fatua); settings: amount of applied herbicide 320 g/ha
In short: as §2

blackgrass [6] = test: Test Example 4: herbicidal effect by soil treatment (Table 19, symbol J); type: in vivo, blackgrass (Alopecurus myosuroides); settings: amount of applied herbicide 320 g/ha
In short: as §2

Italian ryegrass [7] = test: Test Example 4: herbicidal effect by soil treatment (Table 19, symbol K); type: in vivo, Italian ryegrass (Lolium multiflorum); settings: amount of applied herbicide 320 g/ha
In short: as §2

windgrass [8] = test: Test Example 4: herbicidal effect by soil treatment (Table 19, symbol L); type: in vivo, windgrass (Apera spica-venti); settings: amount of applied herbicide 320 g/ha
In short: as §2

velvetleaf [9] = test: Test Example 4: herbicidal effect by soil treatment (Table 19, symbol M); type: in vivo, velvetleaf (Abutilon theophrasti); settings: amount of applied herbicide 320 g/ha
In short: as §2

redroot pigweed [10] = test: Test Example 4: herbicidal effect by soil treatment (Table 19, symbol N); type: in vivo, redroot pigweed (Amaranthus retroflexus); settings: amount of applied herbicide 320 g/ha
In short: as §2

lambsquarters [11] = test: Test Example 4: herbicidal effect by soil treatment (Table 19, symbol O); type: in vivo, lambsquarters (Chenopodium album); settings: amount of applied herbicide 320 g/ha
In short: as §2

chickweed [12] = test: Test Example 4: herbicidal effect by soil treatment (Table 19, symbol P); type: in vivo, common chickweed (Stellaria media); settings: amount of applied herbicide 320 g/ha
In short: as §2

false cleavers = test: Test Example 4: herbicidal effect by soil treatment (Table 19, symbol Q); type: in vivo, false cleavers (Galium spurium); settings: amount of applied herbicide 320 g/ha
In short: as §2

persian speedwell [13] = test: Test Example 4: herbicidal effect by soil treatment (Table 19, symbol R); type: in vivo, Persian speedwell (Veronica persica); settings: amount of applied herbicide 320 g/ha
In short: as §2

southern crabgrass [14] = test: Test Example 5: herbicidal effect by foliage application, plastic box (Table 20, symbol F); type: in vivo, southern crabgrass (Digitaria ciliaris); settings: foliage application
In short: (§3)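 Plants sown in sterilized diluvial soil and grown 14 days in a greenhouse at 25° C to 30° C, then sprayed on the foliage with the compound's emulsion diluted in water to a predetermined herbicide amount. Injury to weeds and crops scored three weeks after application on a visual rating scale.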

green foxtail [15] = test: Test Example 5: herbicidal effect by foliage application, plastic box (Table 20, symbol G); type: in vivo, green foxtail (Setaria viridis); settings: foliage application
In short: as §3

barnyard grass [16] = test: Test Example 5: herbicidal effect by foliage application, plastic box (Table 20, symbol H); type: in vivo, barnyard grass (Echinochloa crus-galli); settings: foliage application
In short: as §3

wild oat [17] = test: Test Example 5: herbicidal effect by foliage application, plastic box (Table 20, symbol I); type: in vivo, wild oat (Avena fatua); settings: foliage application
In short: as §3

blackgrass [18] = test: Test Example 5: herbicidal effect by foliage application, plastic box (Table 20, symbol J); type: in vivo, blackgrass (Alopecurus myosuroides); settings: foliage application
In short: as §3

Italian ryegrass [19] = test: Test Example 5: herbicidal effect by foliage application, plastic box (Table 20, symbol K); type: in vivo, Italian ryegrass (Lolium multiflorum); settings: foliage application
In short: as §3

windgrass [20] = test: Test Example 5: herbicidal effect by foliage application, plastic box (Table 20, symbol L); type: in vivo, windgrass (Apera spica-venti); settings: foliage application
In short: as §3

velvetleaf [21] = test: Test Example 5: herbicidal effect by foliage application, plastic box (Table 20, symbol M); type: in vivo, velvetleaf (Abutilon theophrasti); settings: foliage application
In short: as §3

redroot pigweed [22] = test: Test Example 5: herbicidal effect by foliage application, plastic box (Table 20, symbol N); type: in vivo, redroot pigweed (Amaranthus retroflexus); settings: foliage application
In short: as §3

lambsquarters [23] = test: Test Example 5: herbicidal effect by foliage application, plastic box (Table 20, symbol O); type: in vivo, lambsquarters (Chenopodium album); settings: foliage application
In short: as §3

chickweed [24] = test: Test Example 5: herbicidal effect by foliage application, plastic box (Table 20, symbol P); type: in vivo, common chickweed (Stellaria media); settings: foliage application
In short: as §3

persian speedwell [25] = test: Test Example 5: herbicidal effect by foliage application, plastic box (Table 20, symbol R); type: in vivo, Persian speedwell (Veronica persica); settings: foliage application
In short: as §3

[26] = AAH 320 g/ha, evaluated three weeks after application
[27] = 320 g/ha, three weeks after application

Cc1nn(C)c(=O)c(-c2c(-c3ccc(OC(F)F)cc3)sc3ccc(F)cc23)c1OC(=O)N1CCOCC1 [2-290]
herbicidal effect on H: barnyard grass (barnyard grass [1]): 4 (Herbicidal rate of 70% or more and less than 90%) | herbicidal effect on D: Chinese sprangletop (Chinese sprangletop): 4 (Herbicidal rate of 70% or more and less than 90%) | herbicidal effect on E: rice flat sedge (rice flat sedge): 3 (Herbicidal rate of 40% or more and less than 70%) | herbicidal effect on F: southern crabgrass (southern crabgrass [2]): 0 (Herbicidal rate of 5% or less (almost no effect)) | herbicidal effect on G: green foxtail (green foxtail [3]): 0 (Herbicidal rate of 5% or less (almost no effect)) | herbicidal effect on H: barnyard grass (barnyard grass [4]): 0 (Herbicidal rate of 5% or less (almost no effect)) | herbicidal effect on I: wild oat (wild oat [5]): 0 (Herbicidal rate of 5% or less (almost no effect)) | herbicidal effect on J: blackgrass (blackgrass [6]): 0 (Herbicidal rate of 5% or less (almost no effect)) | herbicidal effect on K: Italian ryegrass (Italian ryegrass [7]): 0 (Herbicidal rate of 5% or less (almost no effect)) | herbicidal effect on L: windgrass (windgrass [8]): 0 (Herbicidal rate of 5% or less (almost no effect)) | herbicidal effect on M: velvetleaf (velvetleaf [9]): 0 (Herbicidal rate of 5% or less (almost no effect)) | herbicidal effect on N: redroot pigweed (redroot pigweed [10]): 1 (Herbicidal rate of 5% or more and less than 20%) | herbicidal effect on O: lambsquarters (lambsquarters [11]): 3 (Herbicidal rate of 40% or more and less than 70%) | herbicidal effect on P: chickweed (chickweed [12]): 0 (Herbicidal rate of 5% or less (almost no effect)) | herbicidal effect on Q: false cleavers (false cleavers): 0 (Herbicidal rate of 5% or less (almost no effect)) | herbicidal effect on R: persian speedwell (persian speedwell [13]): 3 (Herbicidal rate of 40% or more and less than 70%) | F: southern crabgrass, herbicidal effect (criteria 0-5) (southern crabgrass [14]; [26]): 0 (Herbicidal rate of 5% or less (almost no effect)) | G: green foxtail, herbicidal effect (criteria 0-5) (green foxtail [15]; [26]): 2 (Herbicidal rate of 20% or more and less than 40%) | H: barnyard grass, herbicidal effect (criteria 0-5) (barnyard grass [16]; [26]): 2 (Herbicidal rate of 20% or more and less than 40%) | I: wild oat, herbicidal effect (criteria 0-5) (wild oat [17]; [26]): 0 (Herbicidal rate of 5% or less (almost no effect)) | J: blackgrass, herbicidal effect (criteria 0-5) (blackgrass [18]; [26]): 0 (Herbicidal rate of 5% or less (almost no effect)) | K: Italian ryegrass, herbicidal effect (criteria 0-5) (Italian ryegrass [19]; [26]): 0 (Herbicidal rate of 5% or less (almost no effect)) | L: windgrass, herbicidal effect (criteria 0-5) (windgrass [20]; [26]): 0 (Herbicidal rate of 5% or less (almost no effect)) | M: velvetleaf, herbicidal effect (criteria 0-5) (velvetleaf [21]; [26]): 4 (Herbicidal rate of 70% or more and less than 90%) | N: redroot pigweed, herbicidal effect (criteria 0-5) (redroot pigweed [22]; [26]): 5 (Herbicidal rate of 90% or more (almost completely withered)) | O: lambsquarters, herbicidal effect (criteria 0-5) (lambsquarters [23]; [26]): 5 (Herbicidal rate of 90% or more (almost completely withered)) | P: chickweed, herbicidal effect (criteria 0-5) (chickweed [24]; [26]): 5 (Herbicidal rate of 90% or more (almost completely withered)) | R: persian speedwell, herbicidal effect (criteria 0-5) (persian speedwell [25]; [26]): 5 (Herbicidal rate of 90% or more (almost completely withered))

CC(=O)CSc1ccc(-c2sc3ccc(F)cc3c2-c2c(O)c(C)nn(C)c2=O)cc1 [2-424]
herbicidal effect on H: barnyard grass (barnyard grass [1]): 5 (Herbicidal rate of 90% or more (almost completely withered)) | herbicidal effect on D: Chinese sprangletop (Chinese sprangletop): 3 (Herbicidal rate of 40% or more and less than 70%) | herbicidal effect on E: rice flat sedge (rice flat sedge): 4 (Herbicidal rate of 70% or more and less than 90%) | herbicidal effect, F: southern crabgrass (southern crabgrass [2]): 0 (Herbicidal rate of 5% or less (almost no effect)) | herbicidal effect, G: green foxtail (green foxtail [3]): 0 (Herbicidal rate of 5% or less (almost no effect)) | herbicidal effect, H: barnyard grass (barnyard grass [4]): 0 (Herbicidal rate of 5% or less (almost no effect)) | herbicidal effect, I: wild oat (wild oat [5]): 0 (Herbicidal rate of 5% or less (almost no effect)) | herbicidal effect, J: blackgrass (blackgrass [6]): 0 (Herbicidal rate of 5% or less (almost no effect)) | herbicidal effect, K: Italian ryegrass (Italian ryegrass [7]): 0 (Herbicidal rate of 5% or less (almost no effect)) | herbicidal effect, L: windgrass (windgrass [8]): 0 (Herbicidal rate of 5% or less (almost no effect)) | herbicidal effect, M: velvetleaf (velvetleaf [9]): 2 (Herbicidal rate of 20% or more and less than 40%) | herbicidal effect, N: redroot pigweed (redroot pigweed [10]): 4 (Herbicidal rate of 70% or more and less than 90%) | herbicidal effect, O: lambsquarters (lambsquarters [11]): 3 (Herbicidal rate of 40% or more and less than 70%) | herbicidal effect, P: chickweed (chickweed [12]): 0 (Herbicidal rate of 5% or less (almost no effect)) | herbicidal effect, Q: false cleavers (false cleavers): 0 (Herbicidal rate of 5% or less (almost no effect)) | herbicidal effect, R: persian speedwell (persian speedwell [13]): 0 (Herbicidal rate of 5% or less (almost no effect)) | F: southern crabgrass, herbicidal effect grade (southern crabgrass [14]; [27]): 3 (Herbicidal rate of 40% or more and less than 70%) | G: green foxtail, herbicidal effect grade (green foxtail [15]; [27]): 3 (Herbicidal rate of 40% or more and less than 70%) | H: barnyard grass, herbicidal effect grade (barnyard grass [16]; [27]): 5 (Herbicidal rate of 90% or more (almost completely withered)) | I: wild oat, herbicidal effect grade (wild oat [17]; [27]): 4 (Herbicidal rate of 70% or more and less than 90%) | J: blackgrass, herbicidal effect grade (blackgrass [18]; [27]): 3 (Herbicidal rate of 40% or more and less than 70%) | K: Italian ryegrass, herbicidal effect grade (Italian ryegrass [19]; [27]): 1 (Herbicidal rate of 5% or more and less than 20%) | L: windgrass, herbicidal effect grade (windgrass [20]; [27]): 4 (Herbicidal rate of 70% or more and less than 90%) | M: velvetleaf, herbicidal effect grade (velvetleaf [21]; [27]): 3 (Herbicidal rate of 40% or more and less than 70%) | N: redroot pigweed, herbicidal effect grade (redroot pigweed [22]; [27]): 5 (Herbicidal rate of 90% or more (almost completely withered)) | O: lambsquarters, herbicidal effect grade (lambsquarters [23]; [27]): 3 (Herbicidal rate of 40% or more and less than 70%) | P: chickweed, herbicidal effect grade (chickweed [24]; [27]): 5 (Herbicidal rate of 90% or more (almost completely withered)) | R: persian speedwell, herbicidal effect grade (persian speedwell [25]; [27]): 4 (Herbicidal rate of 70% or more and less than 90%)
